Assay results published in ChEMBL document CHEMBL5226289, “Discovery of natural anti-inflammatory alkaloids: Potential leads for the drug discovery for the treatment of inflammation” (Eur J Med Chem, 2021).
pIC50: −log10 of the molar value. Converted amounts (≈) assume the structure as drawn. Values belong to the compound of their own block, whether it stands above or below them.

Columns and labels:
[1] = Inhibition of NO production in LPS-stimulated mouse BV-2 cells preincubated with compound for 1 hrs followed by LPS stimulation and measured after 24 hrs by Griess reagent-based assay; type: functional, cell-based
[2] = Inhibition of LPS-induced NO production in mouse BV-2 cells […]; type: functional, cell-based
[3] = molecular target: T1, Acid-sensing ion channel 1 (Rattus norvegicus) (UniProt P55926); test: Inhibition of rat ASIC1a ion channel expressed in Xenopus laevis oocytes in pH 6.7 buffer at -50 mV holding potential by voltage clamp electrophysiology recording; type: cell-based
T1 sequence (whole entry): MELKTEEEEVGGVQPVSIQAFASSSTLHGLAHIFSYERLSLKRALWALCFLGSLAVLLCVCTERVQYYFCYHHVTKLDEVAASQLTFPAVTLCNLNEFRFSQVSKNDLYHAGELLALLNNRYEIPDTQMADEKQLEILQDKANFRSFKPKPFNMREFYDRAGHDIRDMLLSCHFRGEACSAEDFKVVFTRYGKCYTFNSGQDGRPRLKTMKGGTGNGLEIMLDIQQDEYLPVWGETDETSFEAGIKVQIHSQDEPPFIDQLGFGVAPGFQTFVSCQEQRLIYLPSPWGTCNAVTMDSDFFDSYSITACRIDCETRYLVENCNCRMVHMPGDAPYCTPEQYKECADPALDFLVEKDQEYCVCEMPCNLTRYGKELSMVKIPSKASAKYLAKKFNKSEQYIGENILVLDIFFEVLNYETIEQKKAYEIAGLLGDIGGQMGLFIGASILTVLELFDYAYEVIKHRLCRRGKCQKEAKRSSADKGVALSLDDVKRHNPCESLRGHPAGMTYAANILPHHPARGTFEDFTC

[4] = molecular target: T1, Acid-sensing ion channel 1 (Rattus norvegicus); test: Inhibition of rat ASIC1a ion channel expressed in Xenopus laevis oocytes in pH 6.5 buffer at -50 mV holding potential by voltage clamp electrophysiology recording; type: cell-based
[5] = molecular target: T1, Acid-sensing ion channel 1 (Rattus norvegicus); test: Inhibition of rat ASIC1a ion channel expressed in Xenopus laevis oocytes in pH 6.9 buffer at -50 mV holding potential by voltage clamp electrophysiology recording; type: cell-based
Rattus norvegicus = test: Antiinflammatory activity in Wistar rat assessed as inhibition of carrageenan-induced hind paw edema at 50 mg/kg, po pre-treated for 1 hrs followed by carrageenan administration and measured after 3 hrs by plethysmometer relative to control; type: functional; conditions: time 4 hrs
Mus musculus [6] = test: Antiinflammatory activity in carrageenan-induced peritoneal Swiss albino mouse model assessed as decrease in number of leukocyte cells at 100 umol/kg, po pre-treated for 30 mins followed by carrageenan induction and measured after 4 hrs relative to control; type: functional; set-up: scale not given: the % may be the effect or the level left; conditions: dose 100 µmol/kg, time 4.5 hrs
Mus musculus [7] = test: Antiinflammatory activity against capsaicin-induced ear edema Swiss albino mouse model assessed as inhibition of plasma extravasation at 100 umol/kg, po pre-treated with compound for 40 mins followed by capsaicin stimulation and measured after 30 mins relative to control; type: functional
RAW264.7 [8] = test: Inhibition of NO production in LPS-stimulated mouse RAW264.7 cells at 100 uM incubated for 18 hrs by Griess reagent-based assay; type: functional
[9] = molecular target: Nuclear factor NF-kappa-B complex (Homo sapiens) (UniProt Q00653+P19838+Q04206); test: Inhibition of TNF-alpha induced NFkappaB activation in HEK293 cells at 100 uM pretreated for 15 mins followed by stimulation with human recombinant TNFalpha and measured after 6 hrs by luminescence based assay relative to control; type: cell-based; conditions: time 375.0 min
Sequence of Nuclear factor NF-kappa-B complex (Homo sapiens) (P19838 whole entry, looked up): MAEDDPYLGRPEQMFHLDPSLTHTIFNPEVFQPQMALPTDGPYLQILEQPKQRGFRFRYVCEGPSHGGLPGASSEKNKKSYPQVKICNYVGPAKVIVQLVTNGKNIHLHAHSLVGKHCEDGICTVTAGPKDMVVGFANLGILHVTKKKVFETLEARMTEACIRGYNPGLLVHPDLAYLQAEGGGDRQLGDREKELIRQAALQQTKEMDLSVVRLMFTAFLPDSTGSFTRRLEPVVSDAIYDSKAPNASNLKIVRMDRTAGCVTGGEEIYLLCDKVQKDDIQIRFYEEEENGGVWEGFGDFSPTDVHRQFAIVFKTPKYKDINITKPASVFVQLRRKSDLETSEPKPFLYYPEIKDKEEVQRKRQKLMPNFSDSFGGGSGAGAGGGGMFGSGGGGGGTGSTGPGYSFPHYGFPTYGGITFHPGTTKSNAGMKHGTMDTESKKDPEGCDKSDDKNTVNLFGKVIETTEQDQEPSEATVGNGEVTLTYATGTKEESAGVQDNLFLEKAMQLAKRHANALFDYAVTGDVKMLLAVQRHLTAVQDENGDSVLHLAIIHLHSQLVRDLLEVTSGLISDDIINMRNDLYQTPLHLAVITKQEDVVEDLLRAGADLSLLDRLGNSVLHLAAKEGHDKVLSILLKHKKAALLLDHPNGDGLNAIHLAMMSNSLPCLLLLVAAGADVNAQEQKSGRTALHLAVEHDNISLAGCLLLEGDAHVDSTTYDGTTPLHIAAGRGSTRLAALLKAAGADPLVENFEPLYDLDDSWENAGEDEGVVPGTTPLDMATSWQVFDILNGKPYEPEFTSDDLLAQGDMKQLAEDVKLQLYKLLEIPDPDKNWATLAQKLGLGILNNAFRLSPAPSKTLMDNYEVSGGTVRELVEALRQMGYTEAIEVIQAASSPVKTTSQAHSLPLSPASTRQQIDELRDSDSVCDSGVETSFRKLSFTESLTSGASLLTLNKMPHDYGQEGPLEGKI
Sequence of Nuclear factor NF-kappa-B complex (Homo sapiens) (Q00653 whole entry, looked up): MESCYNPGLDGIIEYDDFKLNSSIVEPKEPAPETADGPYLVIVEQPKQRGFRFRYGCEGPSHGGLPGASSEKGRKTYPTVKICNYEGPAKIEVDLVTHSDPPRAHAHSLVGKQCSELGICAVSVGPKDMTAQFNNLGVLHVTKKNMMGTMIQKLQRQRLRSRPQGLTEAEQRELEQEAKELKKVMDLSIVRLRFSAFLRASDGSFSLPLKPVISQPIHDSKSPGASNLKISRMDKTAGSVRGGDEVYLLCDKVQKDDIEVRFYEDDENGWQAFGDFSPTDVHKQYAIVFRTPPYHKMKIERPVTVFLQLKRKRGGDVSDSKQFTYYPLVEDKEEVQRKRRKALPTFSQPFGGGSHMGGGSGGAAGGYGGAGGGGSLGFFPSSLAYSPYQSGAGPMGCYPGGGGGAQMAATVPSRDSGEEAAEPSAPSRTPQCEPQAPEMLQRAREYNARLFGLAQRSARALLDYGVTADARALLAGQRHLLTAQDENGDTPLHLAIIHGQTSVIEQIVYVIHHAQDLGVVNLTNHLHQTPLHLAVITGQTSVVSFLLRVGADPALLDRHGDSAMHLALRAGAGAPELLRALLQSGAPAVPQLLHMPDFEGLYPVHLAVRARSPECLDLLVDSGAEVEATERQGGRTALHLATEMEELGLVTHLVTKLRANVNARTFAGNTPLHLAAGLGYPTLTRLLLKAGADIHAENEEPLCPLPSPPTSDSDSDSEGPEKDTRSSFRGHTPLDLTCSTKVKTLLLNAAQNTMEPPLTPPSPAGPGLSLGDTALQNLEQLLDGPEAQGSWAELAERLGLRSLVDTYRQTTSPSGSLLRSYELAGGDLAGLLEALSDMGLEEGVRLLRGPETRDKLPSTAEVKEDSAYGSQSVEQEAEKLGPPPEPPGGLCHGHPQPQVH
Sequence of Nuclear factor NF-kappa-B complex (Homo sapiens) (Q04206 whole entry, looked up): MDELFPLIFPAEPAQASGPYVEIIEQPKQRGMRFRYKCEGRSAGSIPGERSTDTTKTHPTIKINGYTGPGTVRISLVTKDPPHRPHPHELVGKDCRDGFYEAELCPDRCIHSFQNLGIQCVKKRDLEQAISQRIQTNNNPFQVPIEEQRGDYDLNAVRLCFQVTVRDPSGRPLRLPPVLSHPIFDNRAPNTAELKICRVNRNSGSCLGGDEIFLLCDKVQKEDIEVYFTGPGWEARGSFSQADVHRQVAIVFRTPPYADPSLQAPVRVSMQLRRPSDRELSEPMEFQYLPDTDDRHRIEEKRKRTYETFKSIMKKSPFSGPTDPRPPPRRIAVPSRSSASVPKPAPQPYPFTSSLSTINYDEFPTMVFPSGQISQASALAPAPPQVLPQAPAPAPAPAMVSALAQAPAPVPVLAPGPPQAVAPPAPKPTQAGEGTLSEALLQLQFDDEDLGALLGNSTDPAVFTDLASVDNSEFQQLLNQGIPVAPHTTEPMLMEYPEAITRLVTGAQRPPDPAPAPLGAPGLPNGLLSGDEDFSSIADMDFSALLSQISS

[10] = molecular target: T2, Polyunsaturated fatty acid 5-lipoxygenase (Homo sapiens) (UniProt P09917); test: Inhibition of 5-LOX (unknown origin) at 100 uM measured after 5 mins by colorimetric method relative to control
T2 sequence (whole entry): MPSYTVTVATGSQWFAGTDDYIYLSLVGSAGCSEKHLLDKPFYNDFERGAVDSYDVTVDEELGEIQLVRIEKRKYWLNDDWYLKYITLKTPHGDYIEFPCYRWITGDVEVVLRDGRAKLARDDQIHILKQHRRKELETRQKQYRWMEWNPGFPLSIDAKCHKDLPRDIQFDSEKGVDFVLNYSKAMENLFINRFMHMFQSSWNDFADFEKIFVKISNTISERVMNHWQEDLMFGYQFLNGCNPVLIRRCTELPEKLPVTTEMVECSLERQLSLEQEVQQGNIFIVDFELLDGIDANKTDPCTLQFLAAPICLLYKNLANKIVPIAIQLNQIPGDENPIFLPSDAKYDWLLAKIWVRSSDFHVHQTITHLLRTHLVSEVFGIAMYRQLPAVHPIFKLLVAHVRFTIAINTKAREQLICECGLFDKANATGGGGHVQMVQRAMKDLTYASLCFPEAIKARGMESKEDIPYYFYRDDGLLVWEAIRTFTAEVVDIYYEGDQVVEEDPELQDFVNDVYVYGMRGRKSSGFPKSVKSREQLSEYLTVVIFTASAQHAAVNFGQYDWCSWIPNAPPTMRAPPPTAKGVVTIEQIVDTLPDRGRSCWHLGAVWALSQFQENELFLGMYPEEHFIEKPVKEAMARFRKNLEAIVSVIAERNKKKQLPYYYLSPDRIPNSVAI

Mus musculus [11] = test: Antiinflammatory activity in mouse assessed as inhibition of xylene-induced ear edema at 10 mg/kg, IG pre-treated for 30 mins followed by xylene administration and measured after 1 hrs relative to control; type: functional; conditions: po, time 1.5 hrs
[12] = molecular target: Prostaglandin G/H synthase 1 (Homo sapiens, UniProt P23219); test: Inhibition of COX-1 (unknown origin) by colorimetric analysis
Sequence of Prostaglandin G/H synthase 1 (P23219 whole entry): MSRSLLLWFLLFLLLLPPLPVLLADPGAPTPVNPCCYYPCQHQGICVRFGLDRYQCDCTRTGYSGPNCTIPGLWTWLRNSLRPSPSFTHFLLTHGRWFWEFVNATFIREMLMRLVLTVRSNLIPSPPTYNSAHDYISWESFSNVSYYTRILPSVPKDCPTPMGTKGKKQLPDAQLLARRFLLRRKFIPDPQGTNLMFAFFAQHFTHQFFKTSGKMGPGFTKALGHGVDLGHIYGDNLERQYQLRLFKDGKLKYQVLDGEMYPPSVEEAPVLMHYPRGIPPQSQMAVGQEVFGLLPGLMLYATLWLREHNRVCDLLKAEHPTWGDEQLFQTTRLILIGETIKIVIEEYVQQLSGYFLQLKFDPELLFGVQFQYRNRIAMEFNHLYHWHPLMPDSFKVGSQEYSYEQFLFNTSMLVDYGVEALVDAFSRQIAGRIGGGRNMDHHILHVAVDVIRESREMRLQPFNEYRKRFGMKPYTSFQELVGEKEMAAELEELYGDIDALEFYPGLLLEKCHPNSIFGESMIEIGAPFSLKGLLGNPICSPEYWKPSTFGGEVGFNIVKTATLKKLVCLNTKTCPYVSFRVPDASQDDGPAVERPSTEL

[13] = molecular target: T3, Prostaglandin G/H synthase 2 (Homo sapiens, UniProt P35354); test: Inhibition of COX-2 (unknown origin) by colorimetric analysis
T3 sequence (P35354 whole entry): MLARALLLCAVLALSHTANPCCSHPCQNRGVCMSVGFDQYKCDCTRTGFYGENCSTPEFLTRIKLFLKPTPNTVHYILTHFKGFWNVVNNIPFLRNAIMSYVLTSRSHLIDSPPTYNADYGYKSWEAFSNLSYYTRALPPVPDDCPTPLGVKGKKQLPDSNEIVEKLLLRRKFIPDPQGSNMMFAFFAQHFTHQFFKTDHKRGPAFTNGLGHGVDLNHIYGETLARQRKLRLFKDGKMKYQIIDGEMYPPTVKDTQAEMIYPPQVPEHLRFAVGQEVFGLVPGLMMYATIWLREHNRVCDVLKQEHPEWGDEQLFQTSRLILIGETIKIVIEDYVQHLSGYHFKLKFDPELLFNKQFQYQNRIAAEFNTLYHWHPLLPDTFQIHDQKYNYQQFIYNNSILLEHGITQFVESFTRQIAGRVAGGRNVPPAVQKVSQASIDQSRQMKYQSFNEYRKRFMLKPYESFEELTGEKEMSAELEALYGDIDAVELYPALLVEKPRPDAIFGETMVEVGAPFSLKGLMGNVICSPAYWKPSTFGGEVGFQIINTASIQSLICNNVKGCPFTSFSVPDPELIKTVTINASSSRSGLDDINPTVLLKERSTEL

RAW264.7 [14] = test: Inhibition of NO production in LPS-stimulated mouse RAW264.7 cells preincubated with compound for 3 hrs followed by LPS stimulation and measured after 20 hrs by Griess reagent-based assay; type: functional, cell-based
[15] = Antiinflammatory activity in rat polymorphonuclear leucocyte cells assessed as inhibition of PAF-induced beta-glucuronidase release at 10 uM preincubated for 20 mins followed by PAF addition relative to control; type: functional
RAW264.7 [16] = test: Antiinflammatory activity against LPS-stimulated mouse RAW264.7 cells assessed as reduction in iNOS protein expression at 10 uM relative to control; type: functional; set-up: scale not given: the % may be the effect or the level left
RAW264.7 [17] = test: Antiinflammatory activity against LPS-stimulated mouse RAW264.7 cells assessed as reduction in COX-2 protein expression at 10 uM relative to control; type: functional; set-up: scale not given: the % may be the effect or the level left
THP-1 [18] = test: Antiinflammatory activity in human THP-1 cells assessed as inhibition of TNF-alpha production; type: functional
THP-1 [19] = test: Antiinflammatory activity in human THP-1 cells assessed as inhibition of IL-6 production; type: functional
RAW264.7 [20] = test: Inhibition of NO production in LPS-stimulated mouse RAW264.7 cells preincubated with compound for 30 mins followed by LPS stimulation and measured after 24 hrs by Griess reagent-based assay; type: functional, cell-based
[21] = Inhibition of TNF-alpha production in LPS-induced human U-937 cells preincubated with compound for 30 mins followed by LPS induction and measured after 4 hrs; type: functional, cell-based

pIC50 [1]: 6.30
SMILES: COc1cc(/C=C/C(=O)CC(=O)/C=C/c2ccc(O)c(OC)c2)ccc1O [CURCUMIN]
pIC50 [2]: 6.30

inhibition [3]: 93.7%
inhibition [4]: 69.3%
inhibition [5]: 98.1%
SMILES: COc1cc2c(cc1O)C(Cc1ccc(O)c(Oc3ccc(C[C@@H]4NCCc5cc(OC)c(O)cc54)cc3)c1)NCC2 (some centres not stated)

SMILES: COc1ccc2c(OC)c3ccoc3nc2c1 [EVOLITRINE]
inhibition in vivo at 50 mg/kg (Rattus norvegicus): 62%

SMILES: COC(=O)/C1=C/c2c([nH]c3ccccc23)/C(C(=O)OC)=C\c2c1[nH]c1ccccc21 [CAULERPIN]
Activity (Mus musculus [6]): 48.3%
inhibition in vivo at 100 µmol/kg (Mus musculus [7]): 55.8%

SMILES: COc1cc2c(cc1O)-c1cc3ccc(OC)c(OC)c3c[n+]1CC2 [COLUMBAMINE]
inhibition at 100 µM (RAW264.7 [8]): 88.1%
inhibition [9]: 63.2%

inhibition [10]: 79.2%
SMILES: C/C=C1/CN2[C@@H]3C[C@@]45c6ccccc6N[C@]4(O3)[C@@H]2C[C@@H]1[C@@H]5OC(C)=O
inhibition in vivo at 10 mg/kg (Mus musculus [11]): 41.9%

pIC50 [12]: 5.12
pIC50 [13]: 5.68
SMILES: CC(C)CC(=O)NC[C@H](O)CC[C@@H](CO)NC(=O)c1nc2ccccc2cc1O

IC50 (RAW264.7 [14]): 3.4 µg/mL (≈ 10.4 µM)
SMILES: C=C1C=C2C=C[C@H](OC)C[C@@]23c2cc4c(cc2[C@@H](O)CN13)OCO4

SMILES: COC1O[C@@H]([C@@H]2c3cc4c(cc3CCN2C)OCO4)c2ccc3c(c21)OCO3 (some centres not stated)
inhibition at 10 µM [15]: 35.6%

SMILES: CSc1[nH]c2cc(Br)c(Br)c(Br)c2c1SC
Activity (RAW264.7 [16]): 2.8%
Activity (RAW264.7 [17]): 1.6%

SMILES: CC(=O)O[C@H]1CN(C)CC[C@H]1c1c(O)cc(O)c2c(=O)cc(C)oc12
inhibition (INH) (THP-1 [18]): 81.1%
inhibition (INH) (THP-1 [19]): 20.5%

pIC50 (RAW264.7 [20]): 4.32
SMILES: COc1c(O)ccc2c1cnc1c3cc4c(cc3ccc21)OCO4 [DECARINE]

pIC50 [21]: 5.82
SMILES: CCCCCCCCCC(=O)C/C(=C\c1cc(CCC)ncc1C(=O)OC)C(C)=O
